Test results reported in patent US8168669B2, “Therapeutic agent for inflammatory bowel disease and TNF-α production inhibitor” (Ajinomoto Co., Inc., priority 2005, dated 2012).

Key:
Assay type in all cases: in vivo, mouse
[1] = system: colitis in Scid mice injected with cells of IL-10 deficient Balb/c mice; assay: Therapeutic effect on inflammatory bowel disease: colon weight in cell-transfer colitis mice fed experimental diet; parameters: Colon weight Mean: unit not given here; conditions: three weeks after cell transfer
Method: Balb/c background IL-10 deficient mice were established from C57BL/6 background IL-10 deficient mice by back-crossing for seventh generations. […] Spleen, mesenteric lymph nodes and sacral lymph nodes were collected from the IL-10 gene-deficient Balb/c mice (male) which had developed the colitis detected by observing the diarrhea symptoms. After preparing single cell suspensions, the cells at about 1×10^7 were injected intraperitoneally to Scid mice which were immunodeficiency mice (hereinafter the Scid mouse injected IP was referred to as an “experiment mouse”). Subsequently, a chow was changed to an experimental diet. At a time point three weeks after cell transfer, the mice were killed, the colon was collected, the intestinal contents were washed out, and its weight was measured. A percentage of inhibiting a weight gain of the colon was calculated by the following formula. Percentage of inhibiting a weight gain of colon=[1−(Colon weight in target group−Colon weight in cell transfer group)/(Colon weight in standard chow group−Colon weight in cell transfer group)]×100(%)
An amino acid mixture A is composed of the following amino acids (% by weight is represented in terms of free amino acid).

TNF-α mRNA = assay: Inhibitory effect on TNF-α production: quantitative RT-PCR of colon TNF-α mRNA; conditions: colon after three weeks
Method: (§1) The experimental diet obtained by mixing the amino acids shown in Table 6 with the standard chow was given to the experiment mice, and after three weeks, the colon was removed. A colon sample was homogenized with 500 μL of Isogen (Nippon Gene). The homogenate mixed with 100 μL, of chloroform was centrifuged at 15,000 rpm at 4° C. and an aqueous layer was collected. An equivalent amount of 2-propanol was added thereto, which was then centrifuged at 15,000 rpm at 4° C. A resulting pellet was washed with 70% (v/v) ethanol, dried in air and dissolved in water treated with DEPC.
All reagents used were from Invitrogen. 0.5 μg Of total RNA and 0.5 μg of oligo (dT) were dissolved in 12 μL of DEPC-treated water, heated at 70° C. for 10 minutes, and cooled on ice for one minute. Subsequently, 4 μL of 5×1st strand buffer, 1 μL of 10 mM dNTP mix and 2 μL of 100 mM DTT were added thereto. The mixture was reacted at 42° C. for 5 minutes. 1 μL (200 U) of SuperScriptII was added, and the mixture was reacted at 42° C. for 50 minutes and 70° C. for 15 minutes.
(§2) A gene expression assay based on PCR was performed using SYBR Green PCR Master Mix (Applied Biosystems) and ABI PRISM 7700 System. SYBR Green PCR Master Mix comprises SYBR Green and heat resistant DNA polymerase, and detects fluorescence generated by specifically binding SYBR Green to a double strand DNA amplified by PCR using ABI PRISM 7700 System. Gene expression amounts of the samples can be compared by comparing the numbers of PCR cycles at which a significant fluorescence signal is detected for the first time. The cDNA corresponding to 10 ng of total RNA was used as a template of the quantitative PCR, and n=2 or more per sample of measurements were performed. A forward primer and a reverse primer at each 7.5 pmol of each gene were added to 7.5 μL of SYBR Green PCR Master Mix (Applied Biosystems), and the total volume was made to be 15 μL with water. The PCR was performed by 40 cycles of the reaction at 95° C. for 10 seconds, 60° C. for 30 seconds and 72° C. for 30 seconds after reacting at 95° C. for 10 minutes. The sequences of the primers used for the quantitative RT-PCR are as follows.
An inhibitory rate of TNF-α mRNA expression was calculated from the following formula. Inhibitory rate of TNF-α mRNA expression=[1−Relative amount of TNF-α mRNA expression in target group−Relative amount of TNF-α mRNA expression in cell transfer group)/(Relative amount of TNF-α mRNA expression in standard chow group−Relative amount of TNF-α mRNA expression in cell transfer group)]×100(%)

Reg3γ mRNA = assay: Quantitative RT-PCR of colon Reg3γ mRNA; conditions: 5% in standard chow, colon after three weeks
Method: as §1
(§3) All reagents used were from Invitrogen. […]
as §2, with “A forward primer and a reverse primer at each 7.5 pmol of each gene were added to 7.5 μL of SYBR Green PCR Master Mix (Applied Biosystems), and the total volume was made to be 15 μL with water. The PCR was performed by 40 cycles of the reaction at 95° C. for 10 seconds, 60° C. for 30 seconds and 72° C. for 30 seconds after reacting at 95° C. for 10 minutes.” left out, “follows. […]” for “follows.”

Groα mRNA = assay: Quantitative RT-PCR of colon Groα mRNA; conditions: 5% in standard chow, colon after three weeks
Method: as §1, §3
as §2, with “A forward primer and a reverse primer at each 7.5 pmol of each gene were added to 7.5 μL of SYBR Green PCR Master Mix (Applied Biosystems), and the total volume was made to be 15 μL with water. The PCR was performed by 40 cycles of the reaction at 95° C. for 10 seconds, 60° C. for 30 seconds and 72° C. for 30 seconds after reacting at 95° C. for 10 minutes.” left out, “follows. […]” for “follows.”

[2] = Mus musculus, po, 504 h, 5% in standard chow, read-out: Rate of inhibiting weight gain of colon (%)

Row | SMILES | inhibition in vivo at 5 % [1, 2] | Inhibitory rate of TNF-α mRNA expression (%) (TNF-α mRNA; 5% in standard chow) | Colon weight Mean ([1]; 5% in standard chow) | further results
1 | N[C@@H](Cc1c[nH]c2ccccc12)C(=O)O [Example 6, tryptophan] | 92.7% | 49% |  | Colon weight Mean ([1]; 2% in standard chow): 425.6; inhibition in vivo at 2 % ([1]; Mus musculus, po, 504 h, 2% in standard chow, read-out: Rate of inhibiting weight gain of colon (%)): 41.9%; Inhibitory rate of TNF-α mRNA expression (%) (TNF-α mRNA; 2% in standard chow): 33%
2 | C[C@@H](O)[C@H](N)C(=O)O [Example 13, threonine] | 28.8% |  | 468.2 | 
3 | NC(=O)CC[C@H](N)C(=O)O [Example 1, glutamine] | 22.5% |  | 530.5 | 
4 | N[C@@H](Cc1ccccc1)C(=O)O [Example 12, phenylalanine] | 48.5% | 84% | 392.8 | 
5 | NCC(=O)O [Example 5, glycine] |  |  | 437.1 | Rate of inhibiting weight gain of colon (%) ([1]; 5% in standard chow): 37.4%
6 | N[C@@H](CS)C(=O)O [Example 4, cysteine] | 42.1% |  |  | 
7 | NCCCC[C@H](N)C(=O)O [Example 2, lysine] | 48.5% |  | 392.8 | 
8 | N[C@@H](Cc1c[nH]cn1)C(=O)O [Example 3, histidine] | 37.8% | 54% | 429.0 | Inhibitory rate of Reg3γ mRNA Expression (%) (Reg3γ mRNA): 84%; Inhibitory rate of Groα mRNA Expression (%) (Groα mRNA): 70%
9 | CSCC[C@H](N)C(=O)O [Example 7, methionine] | 73.1% |  | 307.7 | 
